Data reported in US12655116B2, “Substituted isophthalic acid diamides” (Bayer Aktiengesellschaft, priority 2020, dated 2026).

Key:
PHBPU [1] = test: Pre-emergence herbicidal action against PHBPU; type: in vivo, Pharbitis purpurea; conditions: Ipomoea purpurea, 504 h, dosage 80 g/ha
Summary of the method: (§1)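 Herbicidal effect was assessed 3 weeks after treatment by visual comparison with untreated controls, 100% denoting dead plants. Aqueous WP or EC preparations had been applied at 600 to 800 l/ha with 0.2% wetting agent to the soil covering freshly sown seeds.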

VIOTR [2] = test: Pre-emergence herbicidal action against VIOTR; type: in vivo, Viola tricolor; conditions: Viola tricolor, 504 h; for pest or weed control at 20 g/ha: dosage 20 g/ha; for pest or weed control at 80 g/ha: dosage 80 g/ha
Summary of the method: as §1

AMARE [3] = test: Post-emergence herbicidal action against AMARE; type: in vivo, Amaranthus retroflexus; conditions: Amaranthus retroflexus, 504 h, 20 g/ha, visual assessment about 3 weeks after treatment, 100% = plants have died, 0% = like control plants
Summary of the method: (§2)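 Herbicidal effect was scored visually in percent after about 3 weeks in the greenhouse. Plants had been raised in sandy loam and treated post-emergence at the one-leaf stage with formulated compound at 600 to 800 l/ha water plus 0.2% wetting agent.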

ECHCG [4] = test: Post-emergence herbicidal action against ECHCG; type: in vivo, Echinochloa crus-galli; conditions: Echinochloa crus-galli, 504 h; for pest or weed control at 5 g/ha: dosage 5 g/ha; for pest or weed control at 20 g/ha: dosage 20 g/ha
Summary of the method: as §2

POLCO = test: Pre-emergence herbicidal action against POLCO; type: in vivo, Polygonum convolvulus; conditions: Fallopia convolvulus, 504 h, dosage 80 g/ha
Summary of the method: as §1

MATIN [5] = test: Pre-emergence herbicidal action against MATIN; type: in vivo, Matricaria inodora; conditions: Tripleurospermum inodorum, 504 h; for pest or weed control at 20 g/ha: dosage 20 g/ha; for pest or weed control at 80 g/ha: dosage 80 g/ha
Summary of the method: as §1

AMARE [6] = test: Pre-emergence herbicidal action against AMARE; type: in vivo, Amaranthus retroflexus; conditions: Amaranthus retroflexus, 504 h, scored visually after 3 weeks vs untreated controls, 100% = plants have died, 0% = like control plants
Summary of the method: as §1

DIGSA [7] = test: Post-emergence herbicidal action against DIGSA; type: in vivo, Digitaria sanguinalis; conditions: Digitaria sanguinalis, 504 h
Summary of the method: as §2

SETVI [8] = test: Pre-emergence herbicidal action against SETVI; type: in vivo, Setaria viridis; conditions: Setaria viridis, 504 h; for pest or weed control at 20 g/ha: dosage 20 g/ha; for pest or weed control at 80 g/ha: dosage 80 g/ha
Summary of the method: as §1

ECHCG [9] = test: Pre-emergence herbicidal action against ECHCG; type: in vivo, Echinochloa crus-galli; conditions: Echinochloa crus-galli, 504 h
Summary of the method: as §1

ABUTH [10] = test: Pre-emergence herbicidal action against ABUTH; type: in vivo, Abutilon theophrasti; conditions: Abutilon theophrasti, 504 h; for pest or weed control at 80 g/ha: scored visually after 3 weeks vs untreated controls (100% = plants have died, 0% = like control plants)
Summary of the method: as §1

DIGSA [11] = test: Pre-emergence herbicidal action against DIGSA; type: in vivo, Digitaria sanguinalis; conditions: Digitaria sanguinalis, 504 h; for pest or weed control at 80 g/ha: dosage 80 g/ha
Summary of the method: as §1

SETVI [12] = test: Post-emergence herbicidal action against SETVI; type: in vivo, Setaria viridis; conditions: Setaria viridis, 504 h; for pest or weed control at 5 g/ha: dosage 5 g/ha; for pest or weed control at 20 g/ha: dosage 20 g/ha
Summary of the method: as §2

ALOMY [13] = test: Post-emergence herbicidal action against ALOMY; type: in vivo, Alopecurus myosuroides; conditions: Alopecurus myosuroides, 504 h, visual assessment about 3 weeks after treatment vs untreated controls; for pest or weed control at 20 g/ha: dosage 20 g/ha
Summary of the method: as §2

ALOMY [14] = test: Pre-emergence herbicidal action against ALOMY; type: in vivo, Alopecurus myosuroides; conditions: Alopecurus myosuroides, 504 h, pre-emergence; for pest or weed control at 80 g/ha: scored visually after 3 weeks vs untreated controls (100% = plants have died, 0% = like control plants)
Summary of the method: as §1

PHBPU [15] = test: Post-emergence herbicidal action against PHBPU; type: in vivo, Pharbitis purpurea; conditions: Ipomoea purpurea, 504 h, dosage 20 g/ha
Summary of the method: as §2

AVEFA [16] = test: Post-emergence herbicidal action against AVEFA; type: in vivo, Avena fatua; conditions: Avena fatua, 504 h, 20 g/ha, visual assessment about 3 weeks after treatment, 100% = plants have died, 0% = like control plants
Summary of the method: as §2

VIOTR [17] = test: Post-emergence herbicidal action against VIOTR; type: in vivo, Viola tricolor; conditions: Viola tricolor, 504 h
Summary of the method: as §2

ABUTH [18] = test: Post-emergence herbicidal action against ABUTH; type: in vivo, Abutilon theophrasti; conditions: Abutilon theophrasti, 504 h, visual assessment about 3 weeks after treatment vs untreated controls; for pest or weed control at 5 g/ha: dosage 5 g/ha; for pest or weed control at 20 g/ha: dosage 20 g/ha
Summary of the method: as §2

MATIN [19] = test: Post-emergence herbicidal action against MATIN; type: in vivo, Matricaria inodora; conditions: Tripleurospermum inodorum, 504 h; for pest or weed control at 20 g/ha: dosage 20 g/ha
Summary of the method: as §2

AVEFA [20] = test: Pre-emergence herbicidal action against AVEFA; type: in vivo, Avena fatua; conditions: Avena fatua, 504 h, pre-emergence
Summary of the method: as §1

VERPE [21] = test: Post-emergence herbicidal action against VERPE; type: in vivo, Veronica persica; conditions: Veronica persica, 504 h, 20 g/ha
Summary of the method: as §2

VERPE [22] = test: Pre-emergence herbicidal action against VERPE; type: in vivo, Veronica persica; conditions: Veronica persica, 504 h, dosage 80 g/ha
Summary of the method: as §1

[23] = 20 g/ha, scored visually after 3 weeks, 100% = plants have died, 0% = like control plants

Work on `CCn1nnnc1NC(=O)c1ccc(C(F)(F)F)c(C(=O)NC2CC2)c1OC` [Example 2-58] yielded a pest or weed control at 80 g/ha (PHBPU [1]) of 90%, a pest or weed control at 20 g/ha (VIOTR [2]) of 100% and a pest or weed control at 80 g/ha (VIOTR [2]) of 100%. It also gave a pest or weed control at 20 g/ha (AMARE [3]) of 100%, a pest or weed control at 5 g/ha (ECHCG [4]) of 90% and a pest or weed control at 20 g/ha (ECHCG [4]) of 100%. The pest or weed control at 80 g/ha (POLCO) was 80%, the pest or weed control at 20 g/ha (MATIN [5]) was 100% and the pest or weed control at 80 g/ha (MATIN [5]) was 100%. It also gave a pest or weed control at 20 g/ha (AMARE [6]) of 100%, a pest or weed control at 80 g/ha (AMARE [6]) of 100% and a pest or weed control at 5 g/ha (DIGSA [7]) of 100%. For the same molecule, the pest or weed control at 20 g/ha (DIGSA [7]) was 100%, the pest or weed control at 20 g/ha (SETVI [8]) was 100% and the pest or weed control at 80 g/ha (SETVI [8]) was 100%. For the same molecule, the pest or weed control at 80 g/ha (ECHCG [9]) was 100%, the pest or weed control at 80 g/ha (ABUTH [10]) was 100% and the pest or weed control at 20 g/ha (ABUTH [10]; dosage 20 g/ha, scored visually after 3 weeks vs untreated controls, 100% = plants have died, 0% = like control plants, read-out: Pre-emergence action against ABUTH (herbicidal activity in percent)) was 100%. The pest or weed control at 20 g/ha (DIGSA [11]; dosage 20 g/ha) was 100%, the pest or weed control at 80 g/ha (DIGSA [11]) was 100% and the pest or weed control at 5 g/ha (SETVI [12]) was 90%. The pest or weed control at 20 g/ha (SETVI [12]) was 100%, the pest or weed control at 20 g/ha (ALOMY [13]) was 80% and the pest or weed control at 80 g/ha (ALOMY [14]) was 100%. It also gave a pest or weed control at 20 g/ha (ALOMY [14]; [23]) of 90%, a pest or weed control at 20 g/ha (PHBPU [15]) of 90% and a pest or weed control at 20 g/ha (AVEFA [16]) of 80%. The pest or weed control at 5 g/ha (VIOTR [17]) was 100%, the pest or weed control at 20 g/ha (VIOTR [17]) was 100% and the pest or weed control at 5 g/ha (ABUTH [18]) was 100%. It also gave a pest or weed control at 20 g/ha (ABUTH [18]) of 100%, a pest or weed control at 5 g/ha (MATIN [19]; dosage 5 g/ha) of 80% and a pest or weed control at 20 g/ha (MATIN [19]) of 90%. For the same molecule, the pest or weed control at 80 g/ha (AVEFA [20]) was 90%.
For `CCNC(=O)c1c(C(F)F)ccc(C(=O)Nc2nnnn2C)c1Br` [Example 1-226], the pest or weed control at 20 g/ha (VIOTR [2]) was 80%, the pest or weed control at 80 g/ha (VIOTR [2]) was 100% and the pest or weed control at 20 g/ha (AMARE [3]) was 100%. The pest or weed control at 5 g/ha (ECHCG [4]) was 100%, the pest or weed control at 20 g/ha (ECHCG [4]) was 100% and the pest or weed control at 80 g/ha (POLCO) was 90%. The pest or weed control at 20 g/ha (MATIN [5]) was 100%, the pest or weed control at 80 g/ha (MATIN [5]) was 100% and the pest or weed control at 20 g/ha (AMARE [6]) was 100%. The pest or weed control at 80 g/ha (AMARE [6]) was 100%, the pest or weed control at 5 g/ha (DIGSA [7]) was 90% and the pest or weed control at 20 g/ha (DIGSA [7]) was 100%. It also gave a pest or weed control at 20 g/ha (SETVI [8]) of 100%, a pest or weed control at 80 g/ha (SETVI [8]) of 100% and a pest or weed control at 20 g/ha (ECHCG [9]; 20 g/ha) of 80%. The pest or weed control at 80 g/ha (ECHCG [9]) was 100%, the pest or weed control at 80 g/ha (ABUTH [10]) was 90% and the pest or weed control at 20 g/ha (VERPE [21]) was 90%. It also gave a pest or weed control at 80 g/ha (DIGSA [11]) of 90%, a pest or weed control at 5 g/ha (SETVI [12]) of 100% and a pest or weed control at 20 g/ha (SETVI [12]) of 100%. It also gave a pest or weed control at 5 g/ha (ALOMY [13]; dosage 5 g/ha) of 80%, a pest or weed control at 20 g/ha (ALOMY [13]) of 100% and a pest or weed control at 80 g/ha (ALOMY [14]) of 90%. For the same molecule, the pest or weed control at 20 g/ha (PHBPU [15]) was 80%, the pest or weed control at 20 g/ha (AVEFA [16]) was 80% and the pest or weed control at 5 g/ha (VIOTR [17]) was 100%. For the same molecule, the pest or weed control at 20 g/ha (VIOTR [17]) was 100%, the pest or weed control at 5 g/ha (ABUTH [18]) was 90% and the pest or weed control at 20 g/ha (ABUTH [18]) was 90%. For the same molecule, the pest or weed control at 20 g/ha (MATIN [19]) was 80%, the pest or weed control at 80 g/ha (VERPE [22]) was 90% and the pest or weed control at 80 g/ha (AVEFA [20]) was 90%. It also gave a pest or weed control at 20 g/ha (AVEFA [20]; [23]) of 80%.
